From patent US20240245679A1, “AGENT FOR TREATING INFECTIOUS DISEASES AGAINST MUTANT VIRUSES OF NOVEL CORONAVIRUS” (FUJIFILM TOYAMA CHEMICAL CO., LTD., priority 2021, published 2024)

Experiments:
Assay in all cases: microbe, parasite or virus in culture
Type in all cases: cell-based, SARS-COV-2
SARS-2-9017 (delta) = settings: Severe acute respiratory syndrome coronavirus 2, Vero C1008; 72 hours
USA_WA1/2020 (A line) = settings: Severe acute respiratory syndrome coronavirus 2, Vero 76, read-out: EC90 value (90% effective concentration)
[1] = tested on: hCoV-19/Japan/TY11-330-P1/2021 (B.1.617.1 line); settings: Severe acute respiratory syndrome coronavirus 2, VeroE6/TMPRSS2; 40 hours
SARS-2 WA1/2020 = settings: Severe acute respiratory syndrome coronavirus 2, Vero C1008; 72 hours
[2] = tested on: hCoV-19/Japan/TY8-612/2021 (B.1.351 line); settings: Severe acute respiratory syndrome coronavirus 2, VeroE6/TMPRSS2; 40 hours
[3] = tested on: hCoV-19/Japan/QK002/2020 (B.1.1.7 line); settings: Severe acute respiratory syndrome coronavirus 2, VeroE6/TMPRSS2; 40 hours
SARS-2 Omicron = settings: Severe acute respiratory syndrome coronavirus 2, Vero C1008; 72 hours
[4] = tested on: hCoV-19/Japan/TY11-927-P1/2021 (B.1.617 line); settings: Severe acute respiratory syndrome coronavirus 2, VeroE6/TMPRSS2; 40 hours
[5] = tested on: hCoV-19/Japan/TY7-501/2021 (P.1 line); settings: Severe acute respiratory syndrome coronavirus 2, VeroE6/TMPRSS2; 40 hours
[6] = tested on: hCoV-19/England/204820464/2020 (B.1.1.7 line); settings: Severe acute respiratory syndrome coronavirus 2, Vero 76, read-out: EC90 value (90% effective concentration)
[7] = tested on: hCoV-19/Japan/TY7-503/2021 (P.1 line); settings: Severe acute respiratory syndrome coronavirus 2, Vero 76, read-out: EC90 value (90% effective concentration)
[8] = tested on: hCoV-19/Japan/TY2-312-P1/2020 (B.1.1 line)

NC(=O)c1nc(F)cnc1O [Compound A, 6-fluoro-3-hydroxy-2-pyrazinecarboxamide]
EC90 (SARS-2-9017 (delta)): 125 to 250 µM | EC90 (USA_WA1/2020 (A line)): 68 µM | EC90 [1]: 491 µM | EC90 (SARS-2 WA1/2020): 125 to 250 µM | EC90 [2]: 223 µM | EC90 [3]: 359 µM | EC90 (SARS-2 Omicron): 62.5 to 125 µM | EC90 [4]: 294 µM | EC90 [5]: 306 µM | EC90 [6]: 83 µM | EC90 [7]: 190 µM | EC90 ([8]; 40 hours): 466 µM | EC90 ([8]; Severe acute respiratory syndrome coronavirus 2, VeroE6/TMPRSS2, 40 h): 302 µM
